Experimental findings from patent US20200270588A1, “GLUCOSYL TRANSFERASE POLYPEPTIDES AND METHODS OF USE” (Syngenta Participations AG, priority 2017, published 2020) are described below.

What all share (assay): UDP-Glo glucosyl transferase assay, purified enzyme
Common to all, as to type: biochemical

In experiment [1] the test system is wheat bx glucosyl transferase (SEQ ID NO 4). To be noted: for Activity: herbicide 0.500 mM, limit of detection about 0.001. The method, then:
Glucosyl transferase activity is assayed via measurement of acceptor substrate-dependent production of UDP from ultrapure UDP-glucose using the Promega UDP-Glo™ method and according to the manufacturer's instructions. Assays are run in 96 well microtiter plates.
Enzyme, typically at a stock concentration of ˜2 mg/ml is diluted to an appropriate concentration in 50 mM K^+ Hepes buffer at pH7.5 containing 0.5 mg/mL bovine serum albumin (BSA) and 5 ul aliquots of this diluted enzyme added to each well of a Perkin Elmer white ½ area 96 well plate. […] Assays are run for an appropriate time (usually 10 to 60 min) so that the amount of UDP formed lies within the most nearly linear part of the UDP standard curve and are stopped with the addition and mixing of 25 ul UDP-Glo™ detection reagent (prepared as described below). Plates are then incubated at room temperature for 60 minutes and then read in a luminescence plate reader (Perkin Elmer Envision 2130 Multilabel Reader). A UDP standard curve is run alongside each set of assays and reagent blank control assays run with DMSO in place of test herbicide. Typically, 300 pmol of UDP corresponds to a Relative Luminescence Unit (RLU) reading of about 1.5E7 and the response curve between 0 and 600 pmol is fitted to a polynomial function (see for example FIG. 2).
The UDP-Glo™ reagents are made up and used according to the manufacturer's instructions. Thus, Nucleotide Detection Buffer and ATP are combined to make nucleotide detection reagent (NDR) dispensed into aliquots and frozen to be freshly thawed before use.
Km and kcat values in respect of UDP-glucose are derived by carrying out experiments to measure initial rates over a suitable range of concentrations of UDP glucose out at a fixed near saturating concentration of acceptor substrate. Best fit values of kcat, Km and kcat/Km are obtained by direct fitting of the data to the Michaelis-Menten equation using Graphpad Prism™ software.
DNA sequences, optimized for E. coli codon usage, corresponding to SEQ IDs 1-15, encoding BX8 and BX9 orthologue polypeptides derived from a range of species (as depicted in FIG. 1) were synthesized by Genewiz (South Plainfield, USA) with 5′ NdeI and 3′ XhoI restriction sites. The various orthologues were synthesized with either a N-terminal 6×His purification tag or C-terminal 6×His purification tag (i.e. tried both ways to achieve best expression of activity) and cloned into the E. coli expression plasmid pET24a (Novagen) via the NdeI and XhoI restriction sites. Expression, purification and assay was as described in Example 1.
Assays were carried out as described in Example 1. Partly purified C-terminally his tagged w/t Larkspur enzyme (SEQ ID No 10 with a 6 amino acid C-terminal tag) catalyzed glucosyl transfer to herbicide V at a rate estimated to be about 0.0065/s/pmol at 1 mM herbicide V. The similarly-tagged w/t bx-like enzymes from rye (SEQ ID No 11) and from wheat (SEQ ID No 4) were also active but only at levels close to the detection limit at ˜0.0015/s/pmol. Further examples of assay results from further experiments are depicted in Table 14. All of the proteins were C-terminally his tagged versions of the sequences referenced except for the Zea mays bx8 SEQ ID NO: 2 which was N-terminally his tagged.

For experiment [2], the target named is T1, SEQ ID NO 17, zmBX9 S117V, M279F, A334K mutant (Zea mays, UniProt B4G072, A334K/M279F/S117V).
T1 construct: polypeptides were the C-terminally his-tagged; His tag (C); made in house
To be noted: herbicide mM: V 0.300, VI 0.250, VII 0.210; IV, VIII, XI, XXI, XX, XVIII, XVI, XV, XIV 0.200; others 1.000.

The target of experiment [3] is T2, SEQ ID NO 21, mutant of Zea mays bx9 glucosyl transferase (Zea mays, UniProt B4G072, A334K/F21Y/L194V/M279F/S117V).
T2 construct: His tag (C); made in house
The following applies: lower block, concentration printed only in upper block: V 0.300, VII 0.210; IV, VIII, XI, XXI, XX, XVIII, XVI, XV, XIV 0.200; others 1.000 mM.

Experiment [4] concerns the target T3, SEQ ID NO 22, mutant of Zea mays bx9 glucosyl transferase (Zea mays, UniProt B4G072, A334K/F21Y/M279F/S117V/T220P).
T3 construct: His tag (C); made in house
To be noted: lower block, concentration printed only in upper block: V 0.300, VII 0.210; IV, VIII, XI, XXI, XX, XVIII, XVI, XV, XIV 0.200; others 1.000 mM.

Experiment [5] concerns the target T4, SEQ ID NO 18, mutant of Zea mays bx9 glucosyl transferase (Zea mays, UniProt B4G072, A281K/A334K/F21Y/M279F/S117V).
T4 construct: His tag (C); made in house
The following applies: herbicide mM: V 0.300, VI 0.250, VII 0.210; IV, VIII, XI, XXI, XX, XVIII, XVI, XV, XIV 0.200; others 1.000.

Experiment [6] deals with T5, SEQ ID NO 19, mutant of Zea mays bx9 glucosyl transferase (Zea mays, UniProt B4G072, A281K/A334K/L194V/M279F/S117V).
T5 construct: His tag (C); made in house
To be noted: herbicide mM: V 0.300, VI 0.250, VII 0.210; IV, VIII, XI, XXI, XX, XVIII, XVI, XV, XIV 0.200; others 1.000.

Experiment [7] concerns the target T6, SEQ ID NO 23, mutant of Zea mays bx9 glucosyl transferase (Zea mays, UniProt B4G072, A334K/F21Y/L194C/M279F/S117V).
T6 construct: His tag (C); made in house
The following applies: lower block, concentration printed only in upper block: V 0.300, VII 0.210; IV, VIII, XI, XXI, XX, XVIII, XVI, XV, XIV 0.200; others 1.000 mM.

T5 sequence (B4G072 whole entry S117V/L194V/M279F/A281K/A334K): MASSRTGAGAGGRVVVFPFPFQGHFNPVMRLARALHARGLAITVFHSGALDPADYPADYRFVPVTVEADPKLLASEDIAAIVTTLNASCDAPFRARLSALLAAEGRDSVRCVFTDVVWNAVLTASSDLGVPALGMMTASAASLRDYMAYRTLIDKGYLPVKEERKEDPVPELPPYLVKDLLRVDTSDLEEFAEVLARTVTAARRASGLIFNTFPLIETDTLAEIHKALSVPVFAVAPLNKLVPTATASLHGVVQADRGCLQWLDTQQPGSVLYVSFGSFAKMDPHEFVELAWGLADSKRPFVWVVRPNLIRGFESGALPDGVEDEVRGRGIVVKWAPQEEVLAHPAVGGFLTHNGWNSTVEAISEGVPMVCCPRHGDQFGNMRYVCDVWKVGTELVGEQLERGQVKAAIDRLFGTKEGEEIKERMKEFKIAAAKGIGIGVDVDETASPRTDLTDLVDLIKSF
T6 sequence (B4G072 whole entry F21Y/S117V/L194C/M279F/A334K): as the sequence (B4G072 whole entry S117V/L194V/M279F/A281K/A334K) above, with F21Y, V194C, K281A counted along it
T3 sequence (B4G072 whole entry F21Y/S117V/T220P/M279F/A334K): as the sequence (B4G072 whole entry S117V/L194V/M279F/A281K/A334K) above, with F21Y, V194L, T220P, K281A counted along it
T4 sequence (B4G072 whole entry F21Y/S117V/M279F/A281K/A334K): as the sequence (B4G072 whole entry S117V/L194V/M279F/A281K/A334K) above, with F21Y, V194L counted along it
T2 sequence (B4G072 whole entry F21Y/S117V/L194V/M279F/A334K): as the sequence (B4G072 whole entry S117V/L194V/M279F/A281K/A334K) above, with F21Y, K281A counted along it
T1 sequence (B4G072 whole entry S117V/M279F/A334K): as the sequence (B4G072 whole entry S117V/L194V/M279F/A281K/A334K) above, with V194L, K281A counted along it

Consider `Cc1cnc(N2C(=O)N(C)CC2O)cc1C(F)(F)F` (stereo not drawn) [XVIII], for which the Activity in experiment [1] is 0.000 pmol/sec/pmol enzyme; in experiment [2], 0.231 pmol/sec/pmol enzyme; in experiment [3], 0.425 pmol/sec/pmol enzyme; in experiment [4], 0.933 pmol/sec/pmol enzyme; in experiment [5], 0.898 pmol/sec/pmol enzyme; in experiment [6], 0.964 pmol/sec/pmol enzyme. Besides, the Activity in experiment [7] is listed as 0.253 pmol/sec/pmol enzyme.

As to `CN1CC(O)N(c2cc(C(F)(F)F)c(Cl)cn2)C1=O` (stereo not drawn) [XI], the Activity is 0.001 pmol/sec/pmol enzyme in experiment [1]; 0.120 pmol/sec/pmol enzyme in experiment [2]; 0.374 pmol/sec/pmol enzyme in experiment [3]; 0.548 pmol/sec/pmol enzyme in experiment [4]; 0.710 pmol/sec/pmol enzyme in experiment [5]; 0.898 pmol/sec/pmol enzyme in experiment [6]. Besides, the Activity in experiment [7] amounted to 0.227 pmol/sec/pmol enzyme.

As to `CON1C(=O)N(c2cc(C(F)(F)F)ccn2)C(O)[C@@H]1C` (stereo partly drawn) [Compound VI], the figures for the Activity in experiment [1] and in experiment [2] were 0.000 pmol/sec/pmol enzyme and 1.003 pmol/sec/pmol enzyme, respectively.

Regarding `CN1CC(O)N(c2cc(C(F)(F)F)ccn2)C1=O` (stereo not drawn) [Compound V], the Activity worked out at 0.001 pmol/sec/pmol enzyme in experiment [1]; 0.565 pmol/sec/pmol enzyme in experiment [2]; 1.548 pmol/sec/pmol enzyme in experiment [3]; 1.221 pmol/sec/pmol enzyme in experiment [4]; 1.582 pmol/sec/pmol enzyme in experiment [5]; 1.651 pmol/sec/pmol enzyme in experiment [6]. Also, in experiment [7], the Activity is given as 1.246 pmol/sec/pmol enzyme. Besides, the “rate of glucosyl transfer” value in experiment [1] (herbicide V, close to the detection limit) is about 0.0015 s⁻¹ pmol⁻¹.
